Where a name gives a salt, the structure may show the parent alone. Read-outs that look alike come from different tables or passages of the source.
Assay: Hydrolisis rate of prodrug in whole rat blood (Franz-type cell, phenytoin measured by HPLC)
Format: in vitro ADME
Conditions: for hydrolisis (rate, in words): blood hydrolisis, summary statement on Tables 1 and 2; for metabolised at 10 s: time 0.17 min; for metabolised at 20 s: time 0.33 min; for metabolised at 0.5 min: time 0.50 min; for metabolised at 0.025 h: time 1.5 min; for metabolised at 0.8 h: time 48.00 min; for metabolised at 15 s: time 0.25 min; for metabolised at 0.25 h: time 15.00 min; for metabolised at 1 h: time 60.00 min; for metabolised at 2.45 h: time 147.00 min; for metabolised at 3.15 h: time 189.00 min
Method: To study the hydrolisis of prodrugs in blood, Franz-type permeation cells of the company Crown Glass Co. Somerville, N.Y. have been used. The receiving compartment is used which allows for water recirculation using a glass packet in order to keep the system at 37 °C. This compartment is equipped with magnetic stirring.
For the experiment, male Wistar albino rats weighing 200-275 g, bred and selected at the stabularium of the School of Pharmacy of Barcelona, were used. The animals were fasted for 20 hours before starting the trials, but they were given water ad libitum throughout this period. In order to avoid coprophagy, the animals were placed in cages with a broad wire netting bottom.
After anesthesizing the rat, blood was drawn by cardiac puncture. A known amount of blood (10 ml) containing a prodrug concentration of 40 µg/ml was introduced through the lateral tubes of the receiving compartment of Franz cells. The system was kept at 37 °C and stirred magnetically, samples were taken (1 ml) and phenytoin was measured in each of them by HPLC.
The analytical methods were validated prior to estimating phenytoin levels in blood samples.
As in the previous case, three replicates of the tested product were used.

[1] = rat, whole blood, whole rat blood, 37 °C, prodrug 40 µg/ml, mean of replicates, read-out: % HYDROLISIS IN WHOLE BLOOD, m ± s.d.
[2] = rat, whole blood, whole rat blood, 37 °C, prodrug 40 µg/ml, replicate 1, read-out: % HYDROLISIS IN WHOLE BLOOD
[3] = rat, whole blood, whole rat blood, 37 °C, prodrug 40 µg/ml, replicate 2, read-out: % HYDROLISIS IN WHOLE BLOOD
[4] = rat, whole blood, whole rat blood, 37 °C, prodrug 40 µg/ml, replicate 3, read-out: % HYDROLISIS IN WHOLE BLOOD
[5] = rat, whole blood, whole rat blood, 37 °C, mean of replicates, read-out: % HYDROLISIS IN WHOLE BLOOD, m ± s.d.
[6] = rat, whole blood, whole rat blood, 37 °C, replicate 1, read-out: % HYDROLISIS IN WHOLE BLOOD
[7] = rat, whole blood, whole rat blood, 37 °C, replicate 2, read-out: % HYDROLISIS IN WHOLE BLOOD
[8] = rat, whole blood, whole rat blood, 37 °C, replicate 3, read-out: % HYDROLISIS IN WHOLE BLOOD

CN1CCN(CC(=O)OCN2C(=O)NC(c3ccccc3)(c3ccccc3)C2=O)CC1 [IX, 5,5-diphenyl-3-[(4-methylpiperazinyl)-acetoxymethyl]hydantoin dihydrochloride]
hydrolisis (rate, in words): virtually instantaneous
metabolised at 10 s [1]: 100 ± 7.96%
metabolised at 10 s [2]: 99%
metabolised at 10 s [3]: 109%
metabolised at 10 s [4]: 93.1%
metabolised at 20 s [1]: 102 ± 20.8%
metabolised at 20 s [2]: 85.6%
metabolised at 20 s [3]: 95.8%
metabolised at 20 s [4]: 126%
metabolised at 0.5 min [1]: 102 ± 13.2%
metabolised at 0.5 min [2]: 92.7%
metabolised at 0.5 min [3]: 96.5%
metabolised at 0.5 min [4]: 117%
metabolised at 0.025 h [1]: 104 ± 7.14%
metabolised at 0.025 h [2]: 95.8%
metabolised at 0.025 h [3]: 108%
metabolised at 0.025 h [4]: 109%
metabolised at 5 min [1]: 109%
metabolised at 5 min [2]: 105%
metabolised at 5 min [3]: 117%
metabolised at 5 min [4]: 105%
metabolised at 16 min [1]: 115 ± 5.79%
metabolised at 16 min [3]: 119%
metabolised at 16 min [4]: 110%
metabolised at 0.8 h [1]: 100 ± 3.91%
metabolised at 0.8 h [2]: 97.2%
metabolised at 0.8 h [3]: 99.4%
metabolised at 0.8 h [4]: 105%
metabolised at 115 min (rat, whole blood, whole rat blood, 37 °C, prodrug 40 µg/ml, time 115.00 min, replicate 2): 99.7%

O=C1NC(c2ccccc2)(c2ccccc2)C(=O)N1COP(=O)(O)O [XI, disodium salt of 5,5-diphenyl-3-(hydroxymethyl]hydantoin phosphoric ester]
hydrolisis (rate, in words): much more slower
metabolised at 0.5 min [1]: 8.47 ± 2.79%
metabolised at 0.5 min [2]: 6.37%
metabolised at 0.5 min [3]: 7.41%
metabolised at 0.5 min [4]: 11.7%
metabolised at 15 s [5]: 4.72 ± 1.84%
metabolised at 15 s [6]: 3.42%
metabolised at 15 s [7]: 6.03%
metabolised at 2 min [5]: 15.1 ± 7.72%
metabolised at 2 min [6]: 10.5%
metabolised at 2 min [7]: 10.8%
metabolised at 2 min [8]: 24%
metabolised at 7 min [5]: 33.2 ± 12.3%
metabolised at 7 min [6]: 21.4%
metabolised at 7 min [7]: 32%
metabolised at 7 min [8]: 46%
metabolised at 0.25 h [5]: 59.6 ± 29.8%
metabolised at 0.25 h [6]: 38.9%
metabolised at 0.25 h [7]: 46.1%
metabolised at 0.25 h [8]: 93.8%
metabolised at 1 h [5]: 77.7 ± 4.6%
metabolised at 1 h [6]: 74.5%
metabolised at 1 h [7]: 81%
metabolised at 2.45 h [5]: 81.31 ± 0.47%
metabolised at 2.45 h [6]: 81%
metabolised at 2.45 h [7]: 81.7%
metabolised at 3.15 h [5]: 88.5 ± 13.1%
metabolised at 3.15 h [6]: 79.3%
metabolised at 3.15 h [7]: 97.7%
